Measured values reported in ChEMBL document CHEMBL1909046, “DrugMatrix in vitro pharmacology data”.

Key:
[1] = target: T1, Angiotensin-converting enzyme (Oryctolagus cuniculus, UniProt P12822); assay: biochemical; assay type: tissue-based, Lung;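 note: enzymatic inhibition of angiotensin-converting enzyme measured with FAPGG as the substrate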
T1 sequence (P12822 whole entry): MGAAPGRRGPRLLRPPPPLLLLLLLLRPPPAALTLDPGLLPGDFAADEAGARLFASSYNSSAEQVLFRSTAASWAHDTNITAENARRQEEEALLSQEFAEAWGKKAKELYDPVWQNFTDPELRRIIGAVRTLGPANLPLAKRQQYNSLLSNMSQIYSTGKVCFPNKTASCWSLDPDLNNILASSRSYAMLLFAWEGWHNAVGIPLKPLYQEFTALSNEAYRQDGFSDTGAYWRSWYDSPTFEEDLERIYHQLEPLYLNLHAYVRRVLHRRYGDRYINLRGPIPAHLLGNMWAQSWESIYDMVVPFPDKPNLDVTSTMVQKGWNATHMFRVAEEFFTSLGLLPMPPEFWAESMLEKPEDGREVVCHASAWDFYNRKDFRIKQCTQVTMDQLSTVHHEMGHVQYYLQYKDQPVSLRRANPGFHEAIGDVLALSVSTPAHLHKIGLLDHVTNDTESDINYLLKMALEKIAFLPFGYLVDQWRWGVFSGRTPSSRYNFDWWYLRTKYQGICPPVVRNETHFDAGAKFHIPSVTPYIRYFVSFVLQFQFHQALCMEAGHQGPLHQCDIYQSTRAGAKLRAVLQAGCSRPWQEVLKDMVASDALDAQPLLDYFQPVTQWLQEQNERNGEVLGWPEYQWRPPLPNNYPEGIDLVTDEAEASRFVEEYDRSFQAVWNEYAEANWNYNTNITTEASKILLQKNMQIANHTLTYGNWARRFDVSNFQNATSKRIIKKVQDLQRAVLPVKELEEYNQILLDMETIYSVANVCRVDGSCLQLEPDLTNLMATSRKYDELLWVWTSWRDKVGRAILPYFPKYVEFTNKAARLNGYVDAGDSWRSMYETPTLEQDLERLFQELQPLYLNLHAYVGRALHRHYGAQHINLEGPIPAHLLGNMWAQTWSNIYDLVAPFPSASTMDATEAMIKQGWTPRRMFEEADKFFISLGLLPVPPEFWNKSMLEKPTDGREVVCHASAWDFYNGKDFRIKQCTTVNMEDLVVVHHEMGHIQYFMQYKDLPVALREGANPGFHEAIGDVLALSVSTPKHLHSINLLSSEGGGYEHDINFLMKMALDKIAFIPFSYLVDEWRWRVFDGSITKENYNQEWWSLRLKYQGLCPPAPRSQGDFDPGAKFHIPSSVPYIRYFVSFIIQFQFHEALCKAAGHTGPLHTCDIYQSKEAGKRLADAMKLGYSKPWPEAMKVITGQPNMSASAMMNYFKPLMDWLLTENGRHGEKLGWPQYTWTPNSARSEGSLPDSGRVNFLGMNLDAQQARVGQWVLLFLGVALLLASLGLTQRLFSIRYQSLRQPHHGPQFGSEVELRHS

Androgen receptor = target: T2, Androgen receptor (Rattus norvegicus, UniProt P15207)
T2 sequence (P15207 whole entry): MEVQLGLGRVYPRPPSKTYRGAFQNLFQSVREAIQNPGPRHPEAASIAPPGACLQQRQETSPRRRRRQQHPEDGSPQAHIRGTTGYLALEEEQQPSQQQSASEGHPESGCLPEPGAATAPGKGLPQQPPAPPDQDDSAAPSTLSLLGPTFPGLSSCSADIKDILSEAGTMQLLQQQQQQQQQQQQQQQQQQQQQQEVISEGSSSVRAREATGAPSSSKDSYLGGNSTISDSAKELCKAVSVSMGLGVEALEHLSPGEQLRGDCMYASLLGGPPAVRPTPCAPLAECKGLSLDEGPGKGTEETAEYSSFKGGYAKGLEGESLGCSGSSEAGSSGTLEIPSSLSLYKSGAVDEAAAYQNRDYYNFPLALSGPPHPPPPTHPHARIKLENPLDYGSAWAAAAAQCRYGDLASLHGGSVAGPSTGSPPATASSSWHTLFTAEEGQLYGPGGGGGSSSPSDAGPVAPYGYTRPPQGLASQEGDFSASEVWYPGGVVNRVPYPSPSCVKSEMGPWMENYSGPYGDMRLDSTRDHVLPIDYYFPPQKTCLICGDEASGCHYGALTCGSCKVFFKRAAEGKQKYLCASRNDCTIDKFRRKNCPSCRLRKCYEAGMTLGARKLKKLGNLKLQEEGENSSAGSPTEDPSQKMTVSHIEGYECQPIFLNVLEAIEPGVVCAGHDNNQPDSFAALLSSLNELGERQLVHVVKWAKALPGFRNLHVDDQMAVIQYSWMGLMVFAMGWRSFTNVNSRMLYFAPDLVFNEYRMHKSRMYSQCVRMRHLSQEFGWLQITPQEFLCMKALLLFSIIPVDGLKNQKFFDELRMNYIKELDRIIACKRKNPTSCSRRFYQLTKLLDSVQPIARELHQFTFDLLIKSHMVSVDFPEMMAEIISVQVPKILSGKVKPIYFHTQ
Note: in other assays of this panel Not Active means under 50% inhibition at 10 µM.

| Compound | IC50 [1] | Ki [1] | IC50 (Androgen receptor) | Ki (Androgen receptor) | IC50 ([1]; read-out: IC50) [nM] |
| --- | --- | --- | --- | --- | --- |
| COPPER(II) OXIDE | Not Active | Not Active | Not Active | Not Active | – |
| OC[C@H]1OC2C3[C@@H](CO)OC(O[C@H]4[C@H](O)[C@@H](O)[C@@H](O[C@H]5[C@H](O)[C@@H](O)[C@@H](O[C@H]6[C@H](O)[C@@H](O)[C@@H](O[C@H]7[C@H](O)[C@@H](O)[C@@H](O[C@H]8[C@H](O)[C@@H](O)[C@@H](O[C@H]9[C@H](O)[C@@H](O)C(OC1[C@H](O)[C@H]2O)O[C@@H]9CO)O[C@@H]8CO)O[C@@H]7CO)O[C@@H]6CO)O[C@@H]5CO)O[C@@H]4CO)[C@H](O)[C@H]3O | Not Active | – | Not Active | – | – |
| C[N+](C)(C)CCOP(=O)([O-])OC[C@H](O)CO | Not Active | – | Not Active | – | – |
| COc1cc(/C=C/C(=O)O)ccc1O [FERULATE] | Not Active | – | Not Active | – | – |
| CC(C)Cn1cnc2c(N)nc3ccccc3c21 [IMIQUIMOD] | Not Active | – | Not Active | – | – |
| CCO [ALCOHOL] | Not Active | – | Not Active | – | – |
| C[C@H](C(=O)O)c1ccc2oc(-c3ccc(F)cc3)nc2c1 [FLUNOXAPROFEN] | Not Active | – | Not Active | – | – |
| C[C@]12CC[C@@H](O)C[C@@H]1CC[C@@H]1[C@@H]2CC[C@]2(C)C(=O)CC[C@@H]12 [ANDROSTERONE] | Not Active | – | Not Active | – | – |
| COc1ccccc1OCCNCC(O)COc1cccc2[nH]c3ccccc3c12 (stereo not given) [CARVEDILOL] | Not Active | – | Not Active | – | – |
| CCN1CCN(c2cc3c(cc2F)c(=O)c(C(=O)O)cn3C2CC2)CC1 [ENROFLOXACIN] | Not Active | – | Not Active | – | – |
| O=C(O)CNCP(=O)(O)O [GLYPHOSATE] | Not Active | – | Not Active | – | – |
| Nc1ccc(C(=O)O)c(O)c1 [AMINOSALICYLIC ACID] | Not Active | – | Not Active | – | – |
| CHROMIC CHLORIDE | Not Active | Not Active | Not Active | Not Active | – |
| COC(=O)C[C@](O)(CCC(C)(C)O)C(=O)O[C@@H]1C(OC)=C[C@]23CCCN2CCc2cc4c(cc2[C@H]13)OCO4 [HARRINGTONINE] | Not Active | – | Not Active | – | – |
| CARBOXYMETHYLCELLULOSE | Not Active | Not Active | Not Active | Not Active | – |
| C[C@@H]1[C@H](O)[C@@H](C)/C=C/C=C/C=C/C=C/C=C/C=C/C=C/[C@H](O[C@@H]2O[C@H](C)[C@@H](O)[C@H](N)[C@@H]2O)C[C@@H]2O[C@](O)(C[C@@H](O)C[C@@H](O)[C@H](O)CC[C@@H](O)C[C@@H](O)CC(=O)O[C@H]1C)C[C@H](O)[C@H]2C(=O)O [AMPHOTERICIN B] | Not Active | – | – | – | – |
| CCN(CCO)CCCC(C)Nc1ccnc2cc(Cl)ccc12 (stereo not given) [HYDROXYCHLOROQUINE] | Not Active | – | – | – | – |
| CCC1(c2ccccc2)C(=O)NC(=O)NC1=O [PHENOBARBITAL] | Not Active | – | – | – | – |

| Compound | IC50 [1] | Ki [1] | IC50 (Androgen receptor) | Ki (Androgen receptor) | IC50 ([1]; read-out: IC50) [nM] |
| --- | --- | --- | --- | --- | --- |
| C=CCN1CC[C@]23c4c5ccc(O)c4O[C@H]2/C(=N/N=C2\CC[C@@]4(O)[C@H]6Cc7ccc(O)c8c7[C@@]4(CCN6CC=C)[C@H]2O8)CC[C@@]3(O)[C@H]1C5 [NALOXONAZINE] | Not Active | – | Not Active | – | – |
| CC(C)(C#N)c1cc(Cn2cncn2)cc(C(C)(C)C#N)c1 [ANASTROZOLE] | Not Active | – | – | – | – |
| OC[C@H]1O[C@@H]2O[C@H]3[C@H](O)[C@@H](O)[C@@H](O[C@H]4[C@H](O)[C@@H](O)[C@@H](O[C@H]5[C@H](O)[C@@H](O)[C@@H](O[C@H]6[C@H](O)[C@@H](O)[C@@H](O[C@H]7[C@H](O)[C@@H](O)[C@@H](O[C@H]1[C@H](O)[C@H]2O)O[C@@H]7CO)O[C@@H]6CO)O[C@@H]5CO)O[C@@H]4CO)O[C@@H]3CO [ALFADEX] | Not Active | – | – | – | – |
| POVIDONE | Not Active | Not Active | Not Active | Not Active | – |
| CC[C@H]1OC(=O)[C@H](C)[C@@H](O[C@H]2C[C@@](C)(OC)[C@@H](O)[C@H](C)O2)[C@H](C)[C@@H](O[C@@H]2O[C@H](C)C[C@H](N(C)C)[C@H]2O)[C@](C)(O)C[C@@H](C)C(=O)[C@H](C)[C@@H](O)[C@]1(C)O [ERYTHROMYCIN] | Not Active | – | – | – | – |
| NS(=O)(=O)c1cc(C(=O)O)c(NCc2ccco2)cc1Cl [FUROSEMIDE] | Not Active | – | – | – | – |
| O=C(O)COC(=O)Cc1ccccc1Nc1c(Cl)cccc1Cl [ACECLOFENAC] | Not Active | – | Not Active | – | – |
| COC(=O)Nc1nc2ccc(Sc3ccccc3)cc2[nH]1 [FENBENDAZOLE] | Not Active | – | – | – | – |
| Cc1c(N)nc([C@H](CC(N)=O)NC[C@H](N)C(N)=O)nc1C(=O)N[C@H](C(=O)N[C@H](C)[C@@H](O)[C@H](C)C(=O)N[C@H](C(=O)NCCc1nc(-c2nc(C(=O)NCCC[S+](C)C)cs2)cs1)[C@@H](C)O)[C@@H](O[C@@H]1O[C@@H](CO)[C@@H](O)[C@H](O)[C@@H]1O[C@H]1O[C@H](CO)[C@@H](O)[C@H](OC(N)=O)[C@@H]1O)c1c[nH]cn1.[Br-] [BLEOMYCIN A2] | – | – | – | – | 588 |
| C#C[C@]1(O)CC[C@H]2[C@@H]3CCC4=CC(=O)CC[C@@H]4[C@H]3CC[C@@]21C [NORETHINDRONE] | Not Active | – | – | – | – |
| CC(CN1c2ccccc2Sc2ccccc21)N(C)C (stereo not given) [PROMETHAZINE] | Not Active | – | – | – | – |
| COc1cc(NC(C)CCCN)c2ncccc2c1 (stereo not given) [PRIMAQUINE] | Not Active | – | – | – | – |
| C=C(Cl)Cl [1,1-DICHLOROETHENE] | Not Active | – | Not Active | – | – |
| CC(=O)[C@]1(O)Cc2c(O)c3c(c(O)c2[C@@H](O[C@H]2C[C@H](N)[C@H](O)[C@H](C)O2)C1)C(=O)c1ccccc1C3=O [IDARUBICIN] | Not Active | – | Not Active | – | – |
| Oc1ccccc1 [PHENOL] | Not Active | – | – | – | – |
| O=C(Nc1ccc(Cl)c(Cl)c1)c1cc(Cl)cc(Cl)c1O [3,3',4',5-TETRACHLOROSALICYLANILIDE] | Not Active | – | – | – | – |
| C[N+](C)(C)CCOC(N)=O.[Cl-] [CARBACHOL] | Not Active | – | Not Active | – | – |
| Oc1ncnc2[nH]ncc12 [ALLOPURINOL] | Not Active | – | – | – | – |
